Legend:
Klebsiella pneumoniae [1] = test: Antibacterial activity against Klebsiella pneumoniae assessed as concentration required to obtain a zone of inhibition of 20 mm after 18 to 24 hr by disk diffusion method; type: functional
Pseudomonas aeruginosa [2] = test: Antibacterial activity against Pseudomonas aeruginosa assessed as concentration required to obtain a zone of inhibition of 20 mm after 18 to 24 hr by disk diffusion method; type: functional
Shigella flexneri [3] = test: Antibacterial activity against Shigella flexneri assessed as concentration required to obtain a zone of inhibition of 20 mm after 18 to 24 hr by disk diffusion method; type: functional
Citrobacter [4] = test: Antibacterial activity against Citrobacter assessed as concentration required to obtain a zone of inhibition of 20 mm after 18 to 24 hr by disk diffusion method; type: functional
[5] = Antibacterial activity against Hofmanni bacterium assessed as concentration required to obtain a zone of inhibition of 5 mm after 18 to 24 hr by disc diffusion method
Shigella sp. [6] = test: Antibacterial activity against Shigella typhi assessed as concentration required to obtain a zone of inhibition of 5 mm after 18 to 24 hr by disc diffusion method; type: functional
Shigella sp. [7] = test: Antibacterial activity against Shigella typhi assessed as zone of inhibition after 18 to 24 hr by disc diffusion method relative to gatifloxacin; type: functional
Citrobacter [8] = test: Antibacterial activity against Citrobacter assessed as concentration required to obtain a zone of inhibition of 10 mm after 18 to 24 hr by disk diffusion method; type: functional
Bacillus subtilis [9] = test: Antibacterial activity against Bacillus subtilis assessed as zone of inhibition at 5 to 40 ug/ml after 18 to 24 hr by disk diffusion method relative to gatifloxacin; type: functional
Staphylococcus aureus [10] = test: Antibacterial activity against methicillin-resistant Staphylococcus aureus assessed as zone of inhibition at 5 to 40 ug/ml after 18 to 24 hr by disk diffusion method relative to gatifloxacin; type: functional
[11] = Antibacterial activity against Hofmanni bacterium assessed as concentration required to obtain a zone of inhibition of 20 mm after 18 to 24 hr by disc diffusion method
Pseudomonas aeruginosa [12] = test: Antibacterial activity against Pseudomonas aeruginosa assessed as concentration required to obtain a zone of inhibition of 5 mm after 18 to 24 hr by disk diffusion method; type: functional
Shigella flexneri [13] = test: Antibacterial activity against Shigella flexneri assessed as zone of inhibition at 5 to 40 ug/ml after 18 to 24 hr by disk diffusion method relative to gatifloxacin; type: functional
Proteus mirabilis [14] = test: Antibacterial activity against Proteus mirabilis assessed as concentration required to obtain a zone of inhibition of 20 mm after 18 to 24 hr by disc diffusion method; type: functional
Citrobacter [15] = test: Antibacterial activity against Citrobacter assessed as zone of inhibition at 5 to 40 ug/ml after 18 to 24 hr by disk diffusion method relative to gatifloxacin; type: functional
Klebsiella pneumoniae [16] = test: Antibacterial activity against Klebsiella pneumoniae assessed as concentration required to obtain a zone of inhibition of 10 mm after 18 to 24 hr by disk diffusion method; type: functional
Shigella flexneri [17] = test: Antibacterial activity against Shigella flexneri assessed as concentration required to obtain a zone of inhibition of 10 mm after 18 to 24 hr by disk diffusion method; type: functional
Proteus mirabilis [18] = test: Antibacterial activity against Proteus mirabilis assessed as concentration required to obtain a zone of inhibition of 5 mm after 18 to 24 hr by disc diffusion method; type: functional
Bacillus subtilis [19] = test: Antibacterial activity against Bacillus subtilis assessed as concentration required to obtain a zone of inhibition of 10 mm after 18 to 24 hr by disk diffusion method; type: functional
[20] = Antibacterial activity against Hofmanni bacterium assessed as concentration required to obtain a zone of inhibition of 10 mm after 18 to 24 hr by disc diffusion method
Proteus mirabilis [21] = test: Antibacterial activity against Proteus mirabilis assessed as concentration required to obtain a zone of inhibition of 10 mm after 18 to 24 hr by disc diffusion method; type: functional
Escherichia coli [22] = test: Antibacterial activity against Escherichia coli assessed as zone of inhibition at 5 to 40 ug/ml after 18 to 24 hr by disk diffusion method relative to gatifloxacin; type: functional
Shigella sp. [23] = test: Antibacterial activity against Shigella typhi assessed as concentration required to obtain a zone of inhibition of 10 mm after 18 to 24 hr by disc diffusion method; type: functional
Escherichia coli [24] = test: Antibacterial activity against Escherichia coli assessed as concentration required to obtain a zone of inhibition of 5 mm after 18 to 24 hr by disk diffusion method; type: functional
Bacillus subtilis [25] = test: Antibacterial activity against Bacillus subtilis assessed as concentration required to obtain a zone of inhibition of 5 mm after 18 to 24 hr by disk diffusion method; type: functional
Proteus mirabilis [26] = test: Antibacterial activity against Proteus mirabilis assessed as zone of inhibition at 5 to 40 ug/ml after 18 to 24 hr by disc diffusion method relative to gatifloxacin; type: functional
[27] = Antibacterial activity against Hofmanni bacterium assessed as zone of inhibition after 18 to 24 hr by disc diffusion method relative to gatifloxacin
Klebsiella pneumoniae [28] = test: Antibacterial activity against Klebsiella pneumoniae assessed as concentration required to obtain a zone of inhibition of 5 mm after 18 to 24 hr by disk diffusion method; type: functional
Citrobacter [29] = test: Antibacterial activity against Citrobacter assessed as concentration required to obtain a zone of inhibition of 5 mm after 18 to 24 hr by disk diffusion method; type: functional
Bacillus subtilis [30] = test: Antibacterial activity against Bacillus subtilis assessed as concentration required to obtain a zone of inhibition of 20 mm after 18 to 24 hr by disk diffusion method; type: functional
Pseudomonas aeruginosa [31] = test: Antibacterial activity against Pseudomonas aeruginosa assessed as zone of inhibition at 5 to 40 ug/ml after 18 to 24 hr by disk diffusion method relative to gatifloxacin; type: functional
Escherichia coli [32] = test: Antibacterial activity against Escherichia coli assessed as concentration required to obtain a zone of inhibition of 20 mm after 18 to 24 hr by disk diffusion method; type: functional
Staphylococcus aureus [33] = test: Antibacterial activity against methicillin-resistant Staphylococcus aureus assessed as concentration required to obtain a zone of inhibition of 5 mm after 18 to 24 hr by disk diffusion method; type: functional
Shigella flexneri [34] = test: Antibacterial activity against Shigella flexneri assessed as concentration required to obtain a zone of inhibition of 5 mm after 18 to 24 hr by disk diffusion method; type: functional
Escherichia coli [35] = test: Antibacterial activity against Escherichia coli assessed as concentration required to obtain a zone of inhibition of 10 mm after 18 to 24 hr by disk diffusion method; type: functional
Staphylococcus aureus [36] = test: Antibacterial activity against methicillin-resistant Staphylococcus aureus assessed as concentration required to obtain a zone of inhibition of 20 mm after 18 to 24 hr by disk diffusion method; type: functional
Klebsiella pneumoniae [37] = test: Antibacterial activity against Klebsiella pneumoniae assessed as zone of inhibition at 5 to 40 ug/ml after 18 to 24 hr by disk diffusion method relative to gatifloxacin; type: functional
Pseudomonas aeruginosa [38] = test: Antibacterial activity against Pseudomonas aeruginosa assessed as concentration required to obtain a zone of inhibition of 10 mm after 18 to 24 hr by disk diffusion method; type: functional

`CO/N=C1\CN(c2nc3c(cc2F)c(=O)c(C(=O)O)cn3C2CC2)CC1CN.CS(=O)(=O)O` (stereo not drawn) [GEMIFLOXACIN MESYLATE] showed an Activity (Klebsiella pneumoniae [1]) of 12 µg/mL, an Activity (Pseudomonas aeruginosa [2]) of 10 µg/mL and an Activity (Shigella flexneri [3]) of 13 µg/mL. For the same compound, the Activity (Citrobacter [4]) was 11 µg/mL, the Activity [5] was 5 µg/mL and the Activity (Shigella sp. [6]) was 8 µg/mL. The “inhibition zone (IZ)” value (Shigella sp. [7]) was 75.5%, the Activity (Citrobacter [8]) was 9 µg/mL and the “inhibition zone (IZ)” value (Bacillus subtilis [9]) was 46.3%. The “inhibition zone (IZ)” value (Staphylococcus aureus [10]) was 69.8%, the Activity [11] was 8 µg/mL and the Activity (Pseudomonas aeruginosa [12]) was 8 µg/mL. The “inhibition zone (IZ)” value (Shigella flexneri [13]) was 61.4%, the Activity (Proteus mirabilis [14]) was 12 µg/mL and the “inhibition zone (IZ)” value (Citrobacter [15]) was 42.83%. For the same compound, the Activity (Klebsiella pneumoniae [16]) was 11 µg/mL, the Activity (Shigella flexneri [17]) was 8 µg/mL and the Activity (Proteus mirabilis [18]) was 10 µg/mL. It also gave an Activity (Bacillus subtilis [19]) of 7 µg/mL, an Activity [20] of 7 µg/mL and an Activity (Proteus mirabilis [21]) of 11 µg/mL. For the same compound, the “inhibition zone (IZ)” value (Escherichia coli [22]) was 75.72%, the Activity (Shigella sp. [23]) was 9 µg/mL and the Activity (Escherichia coli [24]) was 7 µg/mL. For the same compound, the Activity (Bacillus subtilis [25]) was 5 µg/mL, the “inhibition zone (IZ)” value (Proteus mirabilis [26]) was 82.5% and the “inhibition zone (IZ)” value [27] was 56.6%. For the same compound, the Activity (Klebsiella pneumoniae [28]) was 10 µg/mL, the Activity (Citrobacter [29]) was 7 µg/mL and the Activity (Bacillus subtilis [30]) was 8 µg/mL. The “inhibition zone (IZ)” value (Pseudomonas aeruginosa [31]) was 75%, the Activity (Escherichia coli [32]) was 10 µg/mL and the Activity (Staphylococcus aureus [33]) was 9 µg/mL. For the same compound, the Activity (Shigella flexneri [34]) was 7 µg/mL, the Activity (Escherichia coli [35]) was 9 µg/mL and the Activity (Staphylococcus aureus [36]) was 14 µg/mL. The “inhibition zone (IZ)” value (Klebsiella pneumoniae [37]) was 84.2% and the Activity (Pseudomonas aeruginosa [38]) was 9 µg/mL.

— ChEMBL document CHEMBL3044830, “Synthesis, characterization, antibacterial, antifungal, and immunomodulating activities of gatifloxacin derivatives” (Med Chem Res, 2010)
